Measurements published in ChEMBL document CHEMBL1146169, “In silico identification and biochemical characterization of novel inhibitors of NQO1” (Bioorg Med Chem Lett, 2006).

Target: NAD(P)H dehydrogenase [quinone] 1 (Homo sapiens, UniProt P15559)
Sequence (P15559 whole entry): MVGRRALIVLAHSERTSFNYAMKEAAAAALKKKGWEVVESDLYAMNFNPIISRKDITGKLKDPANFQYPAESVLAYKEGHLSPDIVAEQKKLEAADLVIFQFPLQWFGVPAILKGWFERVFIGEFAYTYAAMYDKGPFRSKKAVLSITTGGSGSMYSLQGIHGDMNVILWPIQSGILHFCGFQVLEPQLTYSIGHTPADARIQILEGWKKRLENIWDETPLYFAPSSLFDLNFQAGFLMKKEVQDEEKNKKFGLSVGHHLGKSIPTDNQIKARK
Description: Inhibition of human recombinant NQO1

| SMILES | IC50 |
| --- | --- |
| O=C1c2ccccc2C(=O)c2c(O)c(NCCCNCCO)cc(O)c21 | 17.5 µM |
| CN(C)CCNc1ccc2ncn3c4ccc(O)cc4c(=O)c1c23 | 10 µM |
| Cn1c2cc(O)ccc2c2c3nc4ccccc4nc3cc(O)c21 | 3 µM |
| Cc1cc(=O)cc(C)o1 | 20 µM |
| O=[N+]([O-])c1ccc(N/N=C(\N=N\c2ccccc2)c2nc3ccccc3[nH]2)c([N+](=O)[O-])c1 | 35 µM |
| CCOC(=O)C1=NN(c2ccccc2)C(=O)/C1=C\NC(=S)N/N=C1\C(=O)Nc2ccccc21 | 35 µM |
| Nc1ccc(O)c2c1C(=O)c1c(O)c(S(=O)(=O)O)cc(N)c1C2=O | 7.5 µM |
| O=C1c2ccccc2C(=O)c2c(O)c(NCCCN(CCO)CCO)cc(O)c21 | 3 µM |
| CCOc1ccc(OCC)cc1 [1,4-DIETHOXYBENZENE] | 3.5 µM |
| C(=N\NC1=NCCN1)/c1c2ccccc2c(/C=N/NC2=NCCN2)c2ccccc12 [BISANTRENE] | 25 µM |
| COc1ccc2c(c1)-c1nn(CCCN(C)C)c3ccc([N+](=O)[O-])c(c13)N2 [PYRAZOLOACRIDINE] | 45 µM |

Further lines, results first:

| IC50 | SMILES |
| --- | --- |
| 55 µM | CNC(=O)N(OC(N)=O)C(C)=O |
| 25 µM | Nc1nc2cc3nc(N)c(N)nc3cc2nc1N |
| 2 µM | O=c1c2ccccc2c(=O)c2c1c(O)cc1[nH]c3ccccc3[nH]c12 |
| 10 µM | COc1ccc(OC)c2cc3ccccc3cc12 |
| 105 µM | Cn1ncc2c(Cl)ncnc21 |
| 2 µM | O=C1c2ccccc2C(=O)c2c(O)c(NCCCN3CCOCC3)cc(O)c21 |
